The source of these data is patent publication US20110262490A1, “POLYMER-AGENT CONJUGATES, PARTICLES, COMPOSITIONS, AND RELATED METHODS OF USE” (priority 2009, published 2011).

The test system of one data set is HCT-116 tumor. The data set can be described thus: In vivo efficacy in HCT-116 colon xenograft model (Example 44). Set-up: species or system mouse. As to conditions: 30 mg/kg IV weekly×2. How it is done: HCT-116 cells were grown in culture to confluency in McCoy's 5a medium containing 10% FBS and 1% penicillin/streptomycin and then resuspended in McCoy's 5a (passage 4). This suspension of HCT-116 cells (density=3.7×10^6 cells/mL) was implanted subcutaneously above the right hind leg of male CD-1 nude mice on day 1.

The subject of another data set is B16.F10 tumor. The data set can be described thus: Efficacy and tolerability in B16.F10 murine melanoma model (Example 43). The format is in vivo, mouse. How it is done: Refer to table for detailed description of formulations.
Tumor volume was calculated with the following equation: (width×width×length)/2 mm^3.

Setting [1] is: 15 mg/kg IV q3dq4dx3, listed as Docetaxel.
[2] abbreviates: 15 mg/kg IV three times, once every week.

Where “and” joins values, the source holds several entries; their conditions need not be identical. Identical values can stand only once.

In the case of `CC(=O)O[C@@]12CO[C@@H]1C[C@H](O)[C@@]1(C)C(=O)[C@H](O)C3=C(C)[C@@H](OC(=O)[C@H](O)[C@@H](NC(=O)OC(C)(C)C)c4ccccc4)C[C@@](O)([C@@H](OC(=O)c4ccccc4)[C@H]21)C3(C)C` [Free docetaxel, docetaxel], the “Maximum body weight loss” value in the data set with HCT-116 tumor was 14%; with B16.F10 tumor (setting [1]) it was 11% and 12%; in the data set on B16.F10 tumor (15 mg/kg IV q4dq3dx3), 11%; with B16.F10 tumor (setting [2]), 11%; in the data set on B16.F10 tumor (30 mg/kg IV q7dx3), 11%; in the data set with B16.F10 tumor (60 mg/kg IV q14dx2, listed as Docetaxel) it was 0%. For the same molecule, the “Maximum body weight loss” value with B16.F10 tumor (60 mg/kg IV q14dx2, listed as docetaxel) was “did not show any body weight loss”. The “Tumor growth inhibition (TGI)” value with HCT-116 tumor was 88%; with B16.F10 tumor (15 mg/kg IV q3dq4dx3), 90%; in the data set with B16.F10 tumor (15 mg/kg IV q4dq3dx3), 90%; in the data set with B16.F10 tumor (setting [2]), “approximately 90%”; with B16.F10 tumor (30 mg/kg IV q7dx3), 90%; in the data set with B16.F10 tumor (60 mg/kg IV q14dx2), 71%. The TGD with HCT-116 tumor (end point 1000 mm^3) is on record as 22 days. The “Tumor growth delay (TGD)” value in the data set with B16.F10 tumor (setting [1]) is 11 days and 12 days; in the data set with B16.F10 tumor (15 mg/kg IV q4dq3dx3), 11 days; in the data set with B16.F10 tumor (setting [2]), 11 days; in the data set on B16.F10 tumor (30 mg/kg IV q7dx3), 17 days; in the data set on B16.F10 tumor (60 mg/kg IV q14dx2), 11 days. In addition, the figures for the “Day tumor volume end point (3000 mm^3) reached” value with B16.F10 tumor (30 mg/kg q7dx3) and in the data set on B16.F10 tumor (60 mg/kg q14dx2) were 37 days and 29 days, respectively.
